In US20100272680A1, “Piperidinyl Cyclic Amido Antiviral Agents” (priority 2009, published 2010) one finds EC50 data, which are given here for 25 compounds.

The subject of one experiment is HCV Genotype 1A Replicon. Put plainly: Replicon assay, genotype 1a subgenomic replicon, luciferase readout. In kind it is cell-based. Conditions: Hepatitis C virus, 48 h, Table 3; luciferase activity after 48 hours. In a few lines: (§1)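 EC50 values came from four-parameter logistic fits of 10-point dose responses (3–4-fold steps, final 0.03–50 μM, 0.5–1% DMSO), normalized against no-compound and no-cell controls. Firefly luciferase was read 48 h after plating 0.5×10^4 replicon cells/well, 1b ET or 1a Apath-derived line.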
In general terms: Replicon systems follow genome replication, usually without infectious particles.

A further experiment relates to HCV Genotype 1B Replicon. Put plainly: Replicon assay, genotype 1b subgenomic replicon (ET cell line), luciferase readout. In kind it is cell-based. Conditions: Hepatitis C virus, 48 h, Table 3; luciferase activity after 48 hours. In a few lines:
as §1

For orientation: EC50 means the midpoint of the concentration-response curve. Lower therefore signals an effect from little substance. As for `O=C(c1nc2c(C(F)(F)F)cc(-c3cn[nH]c3)cn2c1Cl)N1CCC(N2C(=O)COC2=O)CC1` [Compound 179, 3-(1-{[3-chloro-6-(1H-pyrazol-4-yl)-8-(trifluoromethyl)imidazo[1,2-a]pyridin-2-yl]carbonyl}-4-piperidinyl)-1,3-oxazolidine-2,4-dione], the figures for the EC50 in the experiment on HCV Genotype 1A Replicon and with HCV Genotype 1B Replicon were 60 nM and 360 nM, respectively.

For `C[C@H]1COC(=O)N1C1CCN(C(=O)c2nc3c(C(F)(F)F)cc(-c4ccoc4)cn3c2Cl)CC1` [Compound 180, (4S)-3-(1-{[3-chloro-6-(3-furanyl)-8-(trifluoromethyl)imidazo[1,2-a]pyridin-2-yl]carbonyl}-4-piperidinyl)-4-methyl-1,3-oxazolidin-2-one], the results for the EC50 with HCV Genotype 1A Replicon and in the experiment with HCV Genotype 1B Replicon were 1620 nM and 2850 nM, respectively.

As for `CC1(C)CN(C2CCN(C(=O)c3nc4c(C(F)(F)F)cc(-c5ccoc5)cn4c3Cl)CC2)C(=O)O1` [Compound 181, 3-(1-{[3-chloro-6-(3-furanyl)-8-(trifluoromethyl)imidazo[1,2-a]pyridin-2-yl]carbonyl}-4-piperidinyl)-5,5-dimethyl-1,3-oxazolidin-2-one], the EC50 in the experiment on HCV Genotype 1A Replicon worked out at 6530 nM; in the experiment on HCV Genotype 1B Replicon it was 7080 nM.

Take `C[C@@H]1COC(=O)N1C1CCN(C(=O)c2nc3c(C(F)(F)F)cc(-c4ccoc4)cn3c2Cl)CC1` [Compound 182, (4R)-3-(1-{[3-chloro-6-(3-furanyl)-8-(trifluoromethyl)imidazo[1,2-a]pyridin-2-yl]carbonyl}-4-piperidinyl)-4-methyl-1,3-oxazolidin-2-one]: the EC50 with HCV Genotype 1A Replicon was determined as 130 nM; with HCV Genotype 1B Replicon, 660 nM.

Regarding `CC1(N2CCOC2=O)CCN(C(=O)c2nc3c(C(F)(F)F)cc(-c4ccoc4)cn3c2Cl)CC1` [Compound 183, 3-(1-{[3-chloro-6-(3-furanyl)-8-(trifluoromethyl)imidazo[1,2-a]pyridin-2-yl]carbonyl}-4-methyl-4-piperidinyl)-1,3-oxazolidin-2-one], the EC50 with HCV Genotype 1A Replicon is at least 5010 nM; in the experiment with HCV Genotype 1B Replicon, 4470 nM.

Regarding `C[C@H]1CN(C2CCN(C(=O)c3nc4c(C(F)(F)F)cc(-c5ccoc5)cn4c3Cl)CC2)C(=O)O1` [Compound 184, (5S)-3-(1-{[3-chloro-6-(3-furanyl)-8-(trifluoromethyl)imidazo[1,2-a]pyridin-2-yl]carbonyl}-4-piperidinyl)-5-methyl-1,3-oxazolidin-2-one], the EC50 with HCV Genotype 1A Replicon came out at 220 nM; in the experiment on HCV Genotype 1B Replicon, 80 nM.

For `C[C@@H]1CN(C2CCN(C(=O)c3nc4c(C(F)(F)F)cc(-c5ccoc5)cn4c3Cl)CC2)C(=O)O1` [Compound 185, (5R)-3-(1-{[3-chloro-6-(3-furanyl)-8-(trifluoromethyl)imidazo[1,2-a]pyridin-2-yl]carbonyl}-4-piperidinyl)-5-methyl-1,3-oxazolidin-2-one], the values for the EC50 in the experiment with HCV Genotype 1A Replicon and with HCV Genotype 1B Replicon were 1480 nM and 1550 nM, respectively.

As to `O=C(c1nc2c(C(F)(F)F)cc(-c3ccoc3)cn2c1Cl)N1CCC(n2ccoc2=O)CC1` [Compound 186, 3-(1-{[3-chloro-6-(3-furanyl)-8-(trifluoromethyl)imidazo[1,2-a]pyridin-2-yl]carbonyl}-4-piperidinyl)-1,3-oxazol-2(3H)-one], the EC50 stood at 10 nM with HCV Genotype 1A Replicon and 20 nM with HCV Genotype 1B Replicon.

For `Nc1cc(C(F)(F)F)c2nc(C(=O)N3CCC(N4CCOC4=O)CC3)c(Cl)n2c1` [Compound 187, 3-(1-{[6-amino-3-chloro-8-(trifluoromethyl)imidazo[1,2-a]pyridin-2-yl]carbonyl}-4-piperidinyl)-1,3-oxazolidin-2-one], the EC50 came to 4680 nM in the experiment on HCV Genotype 1A Replicon and 1620 nM in the experiment with HCV Genotype 1B Replicon.

For `C[C@@H]1OC(=O)N(C2CCN(C(=O)c3nc4c(C(F)(F)F)cc(-c5ccoc5)cn4c3Cl)CC2)C1=O` [Compound 188, (5S)-3-(1-{[3-chloro-6-(3-furanyl)-8-(trifluoromethyl)imidazo[1,2-a]pyridin-2-yl]carbonyl}-4-piperidinyl)-5-methyl-1,3-oxazolidine-2,4-dione], the EC50 in the experiment with HCV Genotype 1A Replicon was found to be 190 nM; in the experiment on HCV Genotype 1B Replicon, 60 nM.

Regarding `C[C@@H]1OC(=O)N(C2CCN(C(=O)c3nc4c(C(F)(F)F)cc(C5CC5)cn4c3Cl)CC2)C1=O` [Compound 189, (5S)-3-(1-{[3-chloro-6-cyclopropyl-8-(trifluoromethyl)imidazo[1,2-a]pyridin-2-yl]carbonyl}-4-piperidinyl)-5-methyl-1,3-oxazolidine-2,4-dione], the EC50 in the experiment with HCV Genotype 1A Replicon is 220 nM; with HCV Genotype 1B Replicon, 30 nM.

On to `C[C@@H]1OC(=O)N(C2CCN(C(=O)c3nc4c(C(F)(F)F)cc(Br)cn4c3Cl)CC2)C1=O` [Compound 190, (5S)-3-(1-{[6-bromo-3-chloro-8-(trifluoromethyl)imidazo[1,2-a]pyridin-2-yl]carbonyl}-4-piperidinyl)-5-methyl-1,3-oxazolidine-2,4-dione], for which the EC50 amounted to 1500 nM in the experiment with HCV Genotype 1A Replicon and 70 nM with HCV Genotype 1B Replicon.

Consider `C[C@H]1OC(=O)N(C2CCN(C(=O)c3nc4c(C(F)(F)F)cc(-c5ccoc5)cn4c3Cl)CC2)C1=O` [Compound 191, (5R)-3-(1-{[3-chloro-6-(3-furanyl)-8-(trifluoromethyl)imidazo[1,2-a]pyridin-2-yl]carbonyl}-4-piperidinyl)-5-methyl-1,3-oxazolidine-2,4-dione], for which the figures for the half-maximal effective concentration (EC50) with HCV Genotype 1A Replicon and in the experiment on HCV Genotype 1B Replicon were 210 nM and 40 nM, respectively.

On to `C[C@H]1OC(=O)N(C2CCN(C(=O)c3nc4c(C(F)(F)F)cc(C5CC5)cn4c3Cl)CC2)C1=O` [Compound 192, (5R)-3-(1-{[3-chloro-6-cyclopropyl-8-(trifluoromethyl)imidazo[1,2-a]pyridin-2-yl]carbonyl}-4-piperidinyl)-5-methyl-1,3-oxazolidine-2,4-dione], for which the values for the EC50 in the experiment with HCV Genotype 1A Replicon and in the experiment with HCV Genotype 1B Replicon were 280 nM and 20 nM, respectively.

For `C[C@H]1OC(=O)N(C2CCN(C(=O)c3nc4c(C(F)(F)F)cc(Br)cn4c3Cl)CC2)C1=O` [Compound 193, (5R)-3-(1-{[6-bromo-3-chloro-8-(trifluoromethyl)imidazo[1,2-a]pyridin-2-yl]carbonyl}-4-piperidinyl)-5-methyl-1,3-oxazolidine-2,4-dione], the values for the EC50 with HCV Genotype 1A Replicon and in the experiment with HCV Genotype 1B Replicon were 770 nM and 90 nM, respectively.

On to `O=C(c1nc2c(C(F)(F)F)cc(I)cn2c1Br)N1CCC(N2CCOC2=O)CC1` [Compound 194, 3-(1-{[3-bromo-6-iodo-8-(trifluoromethyl)imidazo[1,2-a]pyridin-2-yl]carbonyl}-4-piperidinyl)-1,3-oxazolidin-2-one], for which the EC50 in the experiment on HCV Genotype 1A Replicon and in the experiment on HCV Genotype 1B Replicon was 30 nM each time.

With `O=C(c1nc2c(C(F)(F)F)cc(I)cn2c1Br)N1CCC(N2C(=O)COC2=O)CC1` [Compound 195, 3-(1-{[3-bromo-6-iodo-8-(trifluoromethyl)imidazo[1,2-a]pyridin-2-yl]carbonyl}-4-piperidinyl)-1,3-oxazolidine-2,4-dione], the EC50 in the experiment with HCV Genotype 1A Replicon came to 50 nM; in the experiment with HCV Genotype 1B Replicon, 30 nM.

On to `CC(C)c1cc(C(F)(F)F)c2nc(C(=O)N3CCC(N4CCOC4=O)CC3)cn2c1` [Compound 196, 3-(1-{[6-(1-methylethyl)-8-(trifluoromethyl)imidazo[1,2-a]pyridin-2-yl]carbonyl}-4-piperidinyl)-1,3-oxazolidin-2-one], for which the EC50 is 1190 nM in the experiment with HCV Genotype 1A Replicon and 960 nM in the experiment with HCV Genotype 1B Replicon.

As to `O=C(c1nc2c(C(F)(F)F)cc(C3CC3)cn2c1Br)N1CCC(N2CCOC2=O)CC1` [Compound 197, 3-(1-{[3-bromo-6-cyclopropyl-8-(trifluoromethyl)imidazo[1,2-a]pyridin-2-yl]carbonyl}-4-piperidinyl)-1,3-oxazolidin-2-one], the EC50 in the experiment with HCV Genotype 1A Replicon and in the experiment on HCV Genotype 1B Replicon was 10 nM each time.

Consider `CC(=O)Nc1cc(C(F)(F)F)c2nc(C(=O)N3CCC(N4CCOC4=O)CC3)c(Cl)n2c1` [Compound 198, N-[3-chloro-2-{[4-(2-oxo-1,3-oxazolidin-3-yl)-1-piperidinyl]carbonyl}-8-(trifluoromethyl)imidazo[1,2-a]pyridin-6-yl]acetamide], for which the EC50 in the experiment with HCV Genotype 1A Replicon and with HCV Genotype 1B Replicon was at least 5010 nM in each case.

As for `O=C(c1nc2c(C(F)(F)F)cc(-c3ccoc3)cn2c1Cl)N1CCC(n2cn[nH]c2=O)CC1` [Compound 199, 4-(1-{[3-chloro-6-(3-furanyl)-8-(trifluoromethyl)imidazo[1,2-a]pyridin-2-yl]carbonyl}-4-piperidinyl)-2,4-dihydro-3H-1,2,4-triazol-3-one], the EC50 came to 4790 nM with HCV Genotype 1A Replicon and 5370 nM in the experiment with HCV Genotype 1B Replicon.

As to `O=C(c1nc2c(C(F)(F)F)cc(C3CC3)cn2c1Cl)N1CCC(N2C(=O)CCC2=O)CC1` [Compound 200, 1-(1-{[3-chloro-6-cyclopropyl-8-(trifluoromethyl)imidazo[1,2-a]pyridin-2-yl]carbonyl}-4-piperidinyl)-2,5-pyrrolidinedione], the EC50 in the experiment with HCV Genotype 1A Replicon amounted to 170 nM; in the experiment on HCV Genotype 1B Replicon it was 30 nM.

With `O=C(c1nc2c(C(F)(F)F)cc(C3CC3)cn2c1Cl)N1CCC(N2CCCC2=O)CC1` [Compound 201, 1-(1-{[3-chloro-6-cyclopropyl-8-(trifluoromethyl)imidazo[1,2-a]pyridin-2-yl]carbonyl}-4-piperidinyl)-2-pyrrolidinone], the EC50 in the experiment with HCV Genotype 1A Replicon came to 100 nM; with HCV Genotype 1B Replicon, 30 nM.

Consider `O=C(c1nc2c(C(F)(F)F)cc(C3CC3)cn2c1Cl)N1CCC(N2C(=O)COC2=O)CC1` [Compound 202, 3-(1-{[3-chloro-6-cyclopropyl-8-(trifluoromethyl)imidazo[1,2-a]pyridin-2-yl]carbonyl}-4-piperidinyl)-1,3-oxazolidine-2,4-dione], for which the results for the EC50 with HCV Genotype 1A Replicon and with HCV Genotype 1B Replicon were 20 nM and 10 nM, respectively.

On to `O=C(c1cn2cc(-c3ccoc3)cc(C(F)(F)F)c2n1)N1CCC(N2CCOC2=O)CC1` [Compound 203, 3-(1-{[6-(3-furanyl)-8-(trifluoromethyl)imidazo[1,2-a]pyridin-2-yl]carbonyl}-4-piperidinyl)-1,3-oxazolidin-2-one], for which the results for the concentration for a half-maximal effect (EC50) in the experiment on HCV Genotype 1A Replicon and in the experiment with HCV Genotype 1B Replicon were 320 nM and 2340 nM, respectively.
